Results as given in the supplement of paper PMC10307832.

Assays:
Assay in all cases: relative viability (nuclei count vs DMSO), 5 days (fraction); higher = more cells survive
JZL-184 + Tozasertib = compound: C1CN(CCC1C(C2=CC3=C(C=C2)OCO3)(C4=CC5=C(C=C4)OCO5)O)C(=O)OC6=CC=C(C=C6)[N+](=O)[O-] [JZL-184] + Cc1cc(Nc2cc(N3CCN(C)CC3)nc(Sc3ccc(NC(=O)C4CC4)cc3)n2)n[nH]1 [Tozasertib] (partner 0.1 µM)
Procedure, shortened: (§1)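 Relative viability was taken as the ratio of nuclei in treated wells to nuclei in vehicle wells. Lung cancer cell lines in 1536-well plates received compounds by pin tool one day after seeding, either one drug alone or a fixed anchor-drug dose plus five library-drug doses (not always all listed) in √10 steps. Nuclei were counted on 4× images after 5 days of treatment, and values are medians of duplicate plates.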

JZL-184 + Decitabine = compound: C1CN(CCC1C(C2=CC3=C(C=C2)OCO3)(C4=CC5=C(C=C4)OCO5)O)C(=O)OC6=CC=C(C=C6)[N+](=O)[O-] [JZL-184] + Nc1ncn([C@H]2C[C@H](O)[C@@H](CO)O2)c(=O)n1 [Decitabine] (partner 2 µM)
Procedure, shortened: as §1

JZL-184 + Navitoclax = compound: C1CN(CCC1C(C2=CC3=C(C=C2)OCO3)(C4=CC5=C(C=C4)OCO5)O)C(=O)OC6=CC=C(C=C6)[N+](=O)[O-] [JZL-184] + CC1(C)CCC(c2ccc(Cl)cc2)=C(CN2CCN(c3ccc(C(=O)NS(=O)(=O)c4ccc(N[C@H](CCN5CCOCC5)CSc5ccccc5)c(S(=O)(=O)C(F)(F)F)c4)cc3)CC2)C1 [Navitoclax] (partner 0.5 µM)
Procedure, shortened: as §1

JZL-184 + Foretinib = compound: C1CN(CCC1C(C2=CC3=C(C=C2)OCO3)(C4=CC5=C(C=C4)OCO5)O)C(=O)OC6=CC=C(C=C6)[N+](=O)[O-] [JZL-184] + COc1cc2c(Oc3ccc(NC(=O)C4(C(=O)Nc5ccc(F)cc5)CC4)cc3F)ccnc2cc1OCCCN1CCOCC1 [Foretinib] (partner 0.25 µM)
Procedure, shortened: as §1

JZL-184 + Dasatinib = compound: C1CN(CCC1C(C2=CC3=C(C=C2)OCO3)(C4=CC5=C(C=C4)OCO5)O)C(=O)OC6=CC=C(C=C6)[N+](=O)[O-] [JZL-184] + Cc1nc(Nc2ncc(C(=O)Nc3c(C)cccc3Cl)s2)cc(N2CCN(CCO)CC2)n1 [Dasatinib] (partner 0.075 µM)
Procedure, shortened: as §1

| Cell Line | relative viability (JZL-184 + Tozasertib; first compound 0.04 µM) | relative viability (JZL-184 + Tozasertib; first compound 0.4 µM) | relative viability (JZL-184 + Tozasertib; first compound 1.265 µM) | relative viability (JZL-184 + Tozasertib; first compound 4 µM) | relative viability (JZL-184 + Decitabine; first compound 0.04 µM) | relative viability (JZL-184 + Decitabine; first compound 0.4 µM) | relative viability (JZL-184 + Decitabine; first compound 1.265 µM) | relative viability (JZL-184 + Decitabine; first compound 4 µM) | relative viability (JZL-184 + Navitoclax; first compound 0.04 µM) | relative viability (JZL-184 + Navitoclax; first compound 0.4 µM) | relative viability (JZL-184 + Navitoclax; first compound 1.265 µM) | relative viability (JZL-184 + Navitoclax; first compound 4 µM) | relative viability (JZL-184 + Foretinib; first compound 0.04 µM) | relative viability (JZL-184 + Foretinib; first compound 0.4 µM) | relative viability (JZL-184 + Foretinib; first compound 1.265 µM) | relative viability (JZL-184 + Foretinib; first compound 4 µM) | relative viability (JZL-184 + Dasatinib; first compound 0.04 µM) | relative viability (JZL-184 + Dasatinib; first compound 0.4 µM) | relative viability (JZL-184 + Dasatinib; first compound 1.265 µM) | relative viability (JZL-184 + Dasatinib; first compound 4 µM) |
| --- | --- | --- | --- | --- | --- | --- | --- | --- | --- | --- | --- | --- | --- | --- | --- | --- | --- | --- | --- | --- |
| LOU-NH91 | 0.806 | 0.727 | 0.798 | 0.629 | 0.814 | 0.837 | 0.863 | 0.749 | 0.763 | 0.71 | 0.886 | 0.718 | 1.02 | 0.9 | 1.03 | 0.939 | 0.612 | 0.544 | 0.605 | 0.567 |
| LU99A | 0.283 | 0.299 | 0.317 | 0.285 | 1 | 0.902 | 1.01 | 0.843 | 0.714 | 0.588 | 0.804 | 0.463 | 0.801 | 0.726 | 0.873 | 0.767 | 0.717 | 0.443 | 0.525 | 0.541 |
| LXF-289 | 0.221 | 0.206 | 0.198 | 0.22 | 0.438 | 0.364 | 0.353 | 0.388 | 0.973 | 0.832 | 0.91 | 0.928 | 1.05 | 0.957 | 0.997 | 0.947 | 0.173 | 0.281 | 0.207 | 0.307 |
| NCI-H23 | 0.375 | 0.307 | 0.414 | 0.316 | 0.275 |  | 0.266 | 0.328 | 1.01 | 0.63 | 0.837 | 0.777 | 0.913 | 1.01 | 1.15 | 1.01 | 0.896 | 0.81 | 0.864 | 0.751 |
| NCI-H322M | 0.441 | 0.444 | 0.49 | 0.401 | 0.661 | 0.684 | 0.678 | 0.668 | 1.18 | 1.26 | 1.32 | 1.31 | 1.12 | 0.932 | 1.03 | 0.791 | 0.252 | 0.265 | 0.264 | 0.252 |
| NCI-H441 | 0.769 | 0.567 | 0.533 | 0.513 | 0.237 | 0.249 | 0.188 | 0.281 | 0.802 | 0.59 | 0.796 | 0.608 | 1.36 | 0.907 | 0.897 | 1.06 | 0.584 | 0.546 | 0.606 | 0.524 |
| NCI-H460 | 0.428 | 0.604 | 0.571 | 0.275 | 0.629 | 0.45 | 0.463 | 0.442 | 1.37 | 1.02 | 1.02 | 1.12 | 1.03 | 0.904 | 0.957 | 1.02 | 0.62 | 0.394 | 0.553 | 0.503 |
| NCI-H520 | 0.424 | 0.407 | 0.581 | 0.413 | 0.546 | 0.545 | 0.503 | 0.477 | 1.19 | 1.13 | 1.15 | 1.04 | 0.893 | 0.784 | 0.831 | 0.771 | 0.188 | 0.2 | 0.178 | 0.168 |
| NCI-H596 | 0.878 | 0.932 | 0.861 | 0.931 | 1.1 | 0.96 | 1.01 | 0.984 | 0.936 | 0.993 | 0.93 | 0.791 | 0.879 | 0.719 | 0.968 | 0.801 | 0.739 | 0.437 | 0.658 | 0.566 |
| NCI-H647 | 0.388 | 0.425 | 0.46 | 0.252 | 0.455 | 0.302 | 0.353 | 0.426 | 1.24 | 1.12 | 1.12 | 1.07 | 1.19 | 1.2 | 1.27 | 1.24 | 0.177 | 0.174 | 0.283 | 0.145 |
| NCI-H727 | 0.594 | 0.568 | 0.777 | 0.583 | 0.928 | 0.663 | 0.626 | 1.13 | 0.383 | 0.455 | 0.543 | 0.422 | 0.981 | 0.744 | 0.932 | 0.845 | 0.37 | 0.443 | 0.398 | 0.334 |
| NCI-H838 | 0.285 | 0.299 | 0.294 | 0.238 | 0.551 | 0.475 | 0.465 | 0.467 | 1.39 | 1.22 | 1.21 | 1.11 | 1.04 | 1.04 | 1.14 | 0.901 | 0.286 | 0.307 | 0.289 | 0.3 |
| NCI-H1355 | 0.589 | 0.515 | 0.612 | 0.433 | 0.349 | 0.34 | 0.36 | 0.347 | 0.848 | 0.925 | 1.08 | 0.861 | 1.06 | 0.936 | 1.01 | 0.929 | 0.723 | 0.662 | 0.783 | 0.672 |
| NCI-H1395 | 0.684 | 0.738 | 0.827 | 0.748 | 0.756 | 0.656 | 0.792 | 0.64 | 1.49 | 1.22 | 1.18 | 1.02 | 0.918 | 0.972 | 0.965 | 0.856 | 0.424 | 0.435 | 0.414 | 0.404 |
| NCI-H1437 | 0.395 | 0.398 | 0.397 | 0.402 | 0.649 | 0.611 | 0.585 | 0.561 | 1.1 | 0.959 | 0.965 | 1.06 | 1.27 | 1.16 | 1.31 | 1.21 | 0.414 | 0.304 | 0.434 | 0.405 |
| NCI-H1650 | 0.417 | 0.325 | 0.432 | 0.257 | 0.405 | 0.464 | 0.471 | 0.425 | 1.64 | 1.08 | 1.39 | 1.06 | 1.22 | 1.03 | 1.35 | 0.898 | 0.306 | 0.297 | 0.388 | 0.296 |
| NCI-H1651 | 0.771 | 0.703 | 0.689 | 0.668 | 0.667 | 0.358 | 0.428 | 0.623 | 1.07 | 0.99 | 1.07 | 1.12 | 0.798 | 0.786 | 0.725 | 0.788 | 0.407 | 0.376 | 0.487 | 0.42 |
| NCI-H1666 | 0.603 | 0.626 | 0.581 | 0.598 | 0.77 | 0.557 | 0.701 | 0.792 | 1.02 | 0.825 | 1.16 | 1.02 | 1.07 | 0.895 | 0.942 | 1 | 0.842 | 0.861 | 0.764 | 0.783 |
| NCI-H1734 | 0.265 | 0.231 | 0.255 | 0.247 | 0.536 | 0.494 | 0.512 | 0.501 | 0.991 | 0.799 | 0.901 | 0.843 | 0.982 | 0.743 | 0.957 | 0.771 | 0.503 | 0.425 | 0.442 | 0.453 |
| NCI-H1755 | 0.545 | 0.575 | 0.601 | 0.453 | 0.751 | 0.701 | 0.71 | 0.704 | 1.01 | 0.954 | 1.01 | 0.918 | 0.989 | 0.917 | 0.933 | 0.919 | 0.445 | 0.428 | 0.406 | 0.396 |
| NCI-H1793 | 0.289 | 0.385 | 0.409 | 0.233 | 0.533 | 0.441 | 0.507 | 0.462 | 0.351 | 0.426 | 0.502 | 0.38 | 0.63 | 0.84 | 0.865 | 0.583 | 0.511 | 0.36 | 0.41 | 0.369 |
| NCI-H1915 | 0.491 | 0.41 | 0.461 | 0.376 | 0.243 | 0.266 | 0.272 | 0.266 | 0.819 | 0.749 | 0.794 | 0.722 | 1.15 | 1.01 | 1.18 | 1.07 | 0.318 | 0.298 | 0.364 | 0.281 |
| NCI-H1944 | 0.283 | 0.251 | 0.281 | 0.248 | 0.451 | 0.416 | 0.407 | 0.391 | 0.948 | 1.08 | 1.08 | 1.02 | 0.893 | 0.906 | 0.938 | 0.886 | 0.256 | 0.208 | 0.221 | 0.213 |
| NCI-H1975 | 0.757 | 0.686 | 0.869 | 0.634 | 0.429 | 0.368 | 0.413 | 0.397 | 1.3 | 0.967 | 1.2 | 1.05 | 1.02 | 0.94 | 0.987 | 0.87 | 0.427 | 0.356 | 0.347 | 0.31 |
| NCI-H1993 | 0.554 | 0.582 | 0.593 | 0.555 | 0.572 | 0.588 | 0.577 | 0.559 | 0.906 | 0.884 | 1.06 | 1.03 | 0.769 | 0.669 | 0.758 | 0.816 | 0.498 | 0.617 | 0.709 | 0.674 |
| NCI-H2009 | 0.798 | 0.699 | 0.758 | 0.651 | 0.425 | 0.385 | 0.363 | 0.446 | 1.18 | 0.951 | 1.17 | 1.17 | 1.17 | 0.809 | 1.28 | 1.21 | 0.354 | 0.28 | 0.333 | 0.239 |
